Results taken from US20170325459A1, “BICYCLIC COMPOUNDS AS PEST CONTROL AGENTS” (Bayer CropScience Aktiengesellschaft, priority 2014, published 2017).

How the values were obtained:
Myzus persicae = Myzus persicae spray test; type: in vivo; conditions: Chinese cabbage leaf discs, after 6 days; for pest or weed control at 500 g/ha: Myzus persicae, foliar, 144 h, read-out: efficacy (aphids killed)
Protocol: Myzus persicae—Spray Test Solvent: 78 parts by weight of acetone • • 1.5 parts by weight of dimethylformamide Emulsifier: alkylaryl polyglycol ether To produce a suitable active ingredient formulation, 1 part by weight of active ingredient is dissolved using the specified parts by weight of solvent and made up with water containing an emulsifier concentration of 1000 ppm until the desired concentration is attained. To produce further test concentrations, the formulation is diluted with emulsifier-containing water. Discs of Chinese cabbage leaves (Brassica pekinensis) infested by all stages of the green peach aphid (Myzus persicae) are sprayed with an active ingredient formulation of the desired concentration. After 6 days, the efficacy in % is determined. 100% means that all the aphids have been killed and 0% means that none of the aphids have been killed.

[1] = log P by HPLC (OECD Guideline 117), method [a] acidic range pH 2.7; type: physicochemical; conditions: for chromatographic logP: reversed-phase (RP) C18 HPLC column
Protocol: (§1) The log P values were determined in accordance with OECD Guideline 117 (EC Directive 92/69/EEC) by HPLC (high-performance liquid chromatography) using reversed-phase (RP) columns (C18), by the following methods: [a] The LC-MS determination in the acidic range is carried out at pH 2.7 with 0.1% aqueous formic acid and acetonitrile (contains 0.1% formic acid) as eluents; linear gradient from 10% acetonitrile to 95% acetonitrile. [b] LC-MS determination in the neutral range is effected at pH 7.8 with 0.001 molar aqueous ammonium hydrogencarbonate solution and acetonitrile as eluents; linear gradient from 10% acetonitrile to 95% acetonitrile. Calibration is effected using unbranched alkan-2-ones (having 3 to 16 carbon atoms) with known log P values (log P values determined on the basis of the retention times by linear interpolation between two successive alkanones).

[2] = log P by HPLC (OECD Guideline 117), method [b] neutral range pH 7.8; type: physicochemical; conditions: for chromatographic logP: reversed-phase (RP) C18 HPLC column
Protocol: as §1

Structure (SMILES)	pest or weed control at 500 g/ha (Myzus persicae; application rate 500 g/ha)	chromatographic logP [1]	chromatographic logP [2]	efficacy (aphids killed) (Myzus persicae; application rate 500 g/ha)	logP[a] [1]	logP[b] [2]	efficacy (aphids killed) (Myzus persicae; application rate 20 g/ha)
Cc1cccc(-c2ccc3nc(-c4cccnc4)sc3c2)c1 [compound 3, 6-(3-Methylphenyl)-2-(pyridin-3-yl)-1,3-benzothiazole]	90%	4.27	4.41				
Cc1ccc(-c2ccc3nc(-c4cccnc4)sc3c2)cc1 [compound 4]				100%	4.25	4.43	
Cc1cc(C)c(-c2ccc3nc(-c4cccnc4)sc3c2)cc1SCC(F)(F)F [compound 9, 6-{2,4-Dimethyl-5-[(2,2,2-trifluoroethyl)sulphanyl]phenyl}-2-(pyridin-3-yl)-1,3-benzothiazole]	90%	5.22	5.24				
Cc1cc(C)c([S+]([O-])CC(F)(F)F)cc1-c1ccc2nc(-c3cccnc3)sc2c1 (stereo not drawn) [compound 10, 6-{2,4-Dimethyl-5-[(2,2,2-trifluoroethyl)sulphinyl]phenyl}-2-(pyridin-3-yl)-1,3-benzothiazole]	90%	3.45	3.4				
Cc1cc(F)c(-c2ccc3nc(-c4cccnc4)sc3c2)cc1SCC(F)(F)F [compound 11, 6-{2-Fluoro-4-methyl-5-[(2,2,2-trifluoroethyl)sulphanyl]phenyl}-2-(pyridin-3-yl)-1,3-benzothiazole]	90%	4.96	4.97				
Cc1cc(F)c(-c2ccc3nc(-c4cccnc4)sc3c2)cc1[S+]([O-])CC(F)(F)F (stereo not drawn) [compound 12, 6-{2-Fluoro-4-methyl-5-[(2,2,2-trifluoroethyl)sulphinyl]phenyl}-2-(pyridin-3-yl)-1,3-benzothiazole]	90%	3.33	3.33				
FC(F)(F)CNc1ccc2nc(-c3cccnc3)sc2c1 [compound 13, 2-(Pyridin-3-yl)-N-(2,2,2-trifluoroethyl)-1,3-benzothiazol-6-amine]	90%	2.36	2.47				
Cc1cc(C)c(SCC(F)(F)F)cc1Nc1ccc2nc(-c3cccnc3)sc2c1 [compound 18, N-{2,4-Dimethyl-5-[(2,2,2-trifluoroethyl)sulphanyl]phenyl}-2-(pyridin-3-yl)-1,3-benzothiazol-6-amine]	90%	4.45	4.51				
Cc1cc(F)c(Nc2ccc3nc(-c4cccnc4)sc3c2)cc1SCC(F)(F)F [compound 20, N-{2-Fluoro-4-methyl-5-[(2,2,2-trifluoroethyl)sulphanyl]phenyl}-2-(pyridin-3-yl)-1,3-benzothiazol-6-amine]	90%	4.18	4.22				
FC(F)(F)c1cnn(-c2ccc3nc(-c4cccnc4)sc3c2)c1 [compound 27]				90%		3.42	
c1cnc(-c2ccn(-c3ccc4nc(-c5cccnc5)sc4c3)n2)nc1 [compound 30, 2-(Pyridin-3-yl)-6-[3-(pyrimidin-2-yl)-1H-pyrazol-1-yl]-1,3-benzothiazole]	90%		2				
C[S+]([O-])Cn1cc(-c2ccc3nc(-c4cccnc4)sc3c2)cn1 (stereo not drawn) [compound 39, 6-{1-[(Methylsulphinyl)methyl]-1H-pyrazol-4-yl}-2-(pyridin-3-yl)-1,3-benzothiazole]	100%	1.32	1.51				
Cc1cnn(-c2ccc3nc(-c4cccnc4)sc3c2)c1 [compound 45]				90%	2.62	2.71	
Cn1cnn(-c2ccc3nc(-c4cccnc4)sc3c2)c1=S [compound 46]				90%	1.35	1.49	
Cn1c(=O)n(C)n(-c2ccc3nc(-c4cccnc4)sc3c2)c1=O [compound 47]				100%	1.52	1.63	
Cc1nn(-c2ccc3nc(-c4cccnc4)sc3c2)c(=O)n1C [compound 48]				90%	1.66	1.81	
Cc1nn(-c2ccc3nc(-c4cccnc4)sc3c2)c(=S)n1C [compound 49]				90%	1.41	1.58	
CSc1nn(-c2ccc3nc(-c4cccnc4)sc3c2)c(=O)n1C [compound 51]				100%	2.43	2.56	
CON(C)C(=O)c1ccc2nc(-c3cccnc3)sc2c1 [compound 65]				100%	1.64		
CON(C)C(=O)c1ccc2nc(-c3cncc(F)c3)sc2c1 [compound 66]				100%	2.16		
CC(F)(F)CNC(=O)c1ccc2nc(-c3cncc(F)c3)sc2c1 [compound 68]				100%	2.39		
CSCCNC(=O)c1ccc2nc(-c3cccnc3)sc2c1 [compound 69, N-[2-(Methylsulphanyl)ethyl]-2-(pyridin-3-yl)-1,3-benzothiazole-6-carboxamide]	90%	1.83					
CSCCNC(=O)c1ccc2nc(-c3cncc(F)c3)sc2c1 [compound 70]				90%	2.31		
CS(=O)(=O)CCNC(=O)c1ccc2nc(-c3cccnc3)sc2c1 [compound 71, N-[2-(Methylsulphonyl)ethyl]-2-(pyridin-3-yl)-1,3-benzothiazole-6-carboxamide]	100%	1.19					
CSCCC(=O)N(C)c1ccc2nc(-c3cccnc3)sc2c1 [compound 78]				100%	2.08		
CSCCC(=O)N(C)c1ccc2nc(-c3cncc(F)c3)sc2c1 [compound 79]				100%	2.64		
CS(=O)(=O)CCC(=O)Nc1ccc2nc(-c3cccnc3)sc2c1 [compound 80]					1.22		100%
CN(C(=O)C1CCS(=O)(=O)C1)c1ccc2nc(-c3cccnc3)sc2c1 (stereo not drawn) [compound 82]				90%	1.49		
